Among the test systems are LOX IMVI melanoma; OVCAR-4 ovarian; HOP-92 NSCLC; BT-549 breast; KM12 colon; UO-31 renal; IGROV1 ovarian; HCT-116 colon; A549 NSCLC; T-47D breast.
Common to all, as to test: DTP human tumour cell line panel, 48 h

The TGI is the concentration giving total growth inhibition. Lower therefore signals more potent growth arrest.

Where “and” joins values, the source holds several entries; their conditions need not be identical. Equal values may be shown once.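 Five compound concentrations were applied to cells in 96-well plates for 48 hours; endpoints were derived by simple linear interpolation of the resulting dose-response curve. TGI: concentration producing complete growth inhibition.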 Where only a bound is given, the exact number is not on record here.

Take `O=c1[nH]c(=O)n(COCc2ccccc2)cc1Nc1ccc(Br)cc1`: the TGI with LOX IMVI melanoma, in the assay with OVCAR-4 ovarian, in the assay with HOP-92 NSCLC, with BT-549 breast, in the assay with KM12 colon and in the assay with UO-31 renal was over 100 µM each time. The TGI with IGROV1 ovarian, in the assay with HCT-116 colon and with A549 NSCLC was over 100 µM each time.
For the compound `Cc1cc(S(=O)(=O)Nc2n[nH]c(N)n2)c(Cl)cc1Cl`, the TGI in the assay on LOX IMVI melanoma, in the assay on OVCAR-4 ovarian, in the assay on BT-549 breast, in the assay on KM12 colon, with T-47D breast and with IGROV1 ovarian was over 10 µM throughout. Further, the TGI in the assay with HCT-116 colon and with A549 NSCLC was over 10 µM each time.
Take `C(#CP(c1ccccc1)c1ccccc1)P(C#CP(c1ccccc1)c1ccccc1)c1ccccc1`: the TGI in the assay on OVCAR-4 ovarian, with HOP-92 NSCLC, in the assay on BT-549 breast, in the assay on KM12 colon, in the assay on UO-31 renal and in the assay with T-47D breast was over 100 µM throughout. Also, the TGI in the assay with IGROV1 ovarian, with HCT-116 colon and in the assay on A549 NSCLC was over 100 µM each time.
Regarding `COc1cc2c(/C=C3/C(=O)N(C)c4ccc(O)cc43)c(Cl)[nH]c2cc1C`, the TGI with LOX IMVI melanoma came out at 17.3 µM; with OVCAR-4 ovarian, 21.6 µM; in the assay on HOP-92 NSCLC, 38.5 µM; in the assay with BT-549 breast, 15.8 µM; with KM12 colon, 6.64 µM; in the assay on UO-31 renal it was 24.5 µM. Besides, the total growth inhibition concentration (TGI) in the assay with T-47D breast amounted to 5.93 µM; in the assay with IGROV1 ovarian, 19.9 µM; in the assay with A549 NSCLC, 16.9 µM.
On to `CCn1c(CCl)nc2c1C(=O)c1ccccc1C2=O`, for which the TGI turned out to be 3.08 µM with OVCAR-4 ovarian; 3.75 µM in the assay on HOP-92 NSCLC; 4.09 µM in the assay on BT-549 breast; 3.23 µM in the assay with KM12 colon; 4.21 µM with T-47D breast; 3.86 µM in the assay on IGROV1 ovarian. The figures for the TGI in the assay with HCT-116 colon and with A549 NSCLC were 4.32 µM and over 100 µM, respectively.
Regarding `CN(CCNC(=O)c1c[nH]c2c1Cc1ccccc1-2)CCNC(=O)c1c[nH]c2c1Cc1ccccc1-2`, the TGI in the assay with LOX IMVI melanoma, with OVCAR-4 ovarian, with HOP-92 NSCLC, in the assay with BT-549 breast, with KM12 colon and in the assay with UO-31 renal was over 100 µM each time. For the same compound, the TGI with IGROV1 ovarian, in the assay on HCT-116 colon and in the assay on A549 NSCLC was over 100 µM throughout.
For `CCN1CCC(CNC(=O)c2ccc(N)cc2)N1CC` (configuration not stated), the TGI in the assay on OVCAR-4 ovarian, with HOP-92 NSCLC, with BT-549 breast, in the assay on KM12 colon, with UO-31 renal and with T-47D breast was over 100 µM in each case. Besides, the TGI in the assay on IGROV1 ovarian, in the assay on HCT-116 colon and in the assay on A549 NSCLC was over 100 µM throughout.
Take `COc1cc(-c2c3c(cc4c2OCO4)[C@@H](Nc2ccc(-c4ccc(-c5ccc(N[C@@H]6c7cc8c(cc7C(c7cc(OC)c(O)c(OC)c7)[C@H]7C(=O)OC[C@H]67)OCO8)cc5)cc4)cc2)[C@H]2COC(=O)[C@@H]2C3)cc(OC)c1O` (some centres not stated): the TGI in the assay on LOX IMVI melanoma was over 100 µM; in the assay on HOP-92 NSCLC it was 29.4 µM; in the assay with BT-549 breast it was 6.76 µM; in the assay with KM12 colon, 4.63 µM; with UO-31 renal, 13.1 µM; in the assay on T-47D breast it was 65.2 µM. Besides, the TGI was 2.68 µM with IGROV1 ovarian, 3.19 µM in the assay with HCT-116 colon and 12.6 µM with A549 NSCLC.
Consider `CCC(C)C1=C(O)[N+]2([O-])Oc3ccc(-c4c(O)c(O)c(-c5ccc(OC(C)=O)cc5)c(OC(C)=O)c4OC(C)=O)cc3OC2(C(C)CC)C(=O)N1O` (configuration not stated), for which the TGI with LOX IMVI melanoma is over 50 µM; with OVCAR-4 ovarian, 41.4 µM and 46.7 µM; in the assay on HOP-92 NSCLC, over 50 µM; in the assay on BT-549 breast it was over 50 µM; in the assay with KM12 colon, over 50 µM; in the assay on UO-31 renal, over 50 µM. Moreover, the TGI with T-47D breast, with IGROV1 ovarian and with A549 NSCLC was over 50 µM in each case.
Consider `CCOC(=O)C1(C#N)CC1`, for which the TGI in the assay on LOX IMVI melanoma, in the assay on OVCAR-4 ovarian, in the assay with BT-549 breast, in the assay with KM12 colon, in the assay on UO-31 renal and with T-47D breast was over 100 µM in each case. For the same compound, the TGI with IGROV1 ovarian, in the assay with HCT-116 colon and in the assay with A549 NSCLC was over 100 µM each time.
For `C=C(Cl)C(Cl)(CCl)CCC(Br)C(C)(C)Br` (configuration not stated), the TGI with OVCAR-4 ovarian, in the assay with HOP-92 NSCLC, in the assay on BT-549 breast, in the assay with KM12 colon, in the assay with UO-31 renal and in the assay with T-47D breast was over 10 µM in each case. Moreover, the TGI with IGROV1 ovarian, with HCT-116 colon and in the assay with A549 NSCLC was over 10 µM throughout.
